Tests used:
Type in all cases: in vivo
[1] = system: OVA-sensitized/challenged mice; assay: OVA allergen-induced airway inflammation mouse model, 28-day protocol, HK-X i.n. before each challenge; conditions: p=0.0128 compared to OVA without zileuton; data not shown
[2] = system: OVA-sensitized/challenged mice; assay: OVA-induced bronchial asthma mouse model (Standard/Resolution protocols, 1-3 month), airway eosinophils and mucus plugs
Excerpt: The OVA-induced Bronchial Asthma Mouse Model for Inhibition of Mast Cell Degranulation
Reagents: Crystalline OVA was obtained from Pierce Chem. Co. (Rockford, Ill.) aluminum potassium sulfate (alum) from Sigma Chem. Co. (St. Louis, Mo.), pyrogen-free distilled water from Baxter, Healthcare Corporation (Deerfield, Ill.), 0.9% sodium chloride (normal saline) from Lymphomed (Deerfield, Ill.) and Trappsol™ HPB-L100 (aqueous hydroxypropyl beta cyclodextrin; 45 wt/vol % aqueous solution) from Cyclodextrin Technologies Development, Inc. (Gainesville, Fla.). The OVA (500 μg/ml in normal saline) was mixed with equal volumes of 10% (wt/vol) alum in distilled water. The mixture (pH 6.5 using 10 N NaOH) after incubation for 60 minutes at room temperature underwent centrifugation at 750 g for 5 minutes; the pellet was resuspended to the original volume in distilled water and used within one hour.
The selective 5-lipoxtgenase inhibitor, Zileuton (N-[1-benzo[b]thien-2-ylethyl]-N-hydroxyurea; J. Pharmacol Exp Ther. 1991; 256: 929-937), was kindly provided by Drs. Bell and George W. Carter (Abbott Laboratories, Abbott Part, Ill.). Zileuton was dissolved in Trappsol.™. Histatek, Inc. (Seattle, Wash.) provided the mast cell degranulation inhibitor, f-Met-Leu-Phe-Phe (“HK-X”).
Female BALB/c […] (6-8 wk of age at purchase; D and K, Seattle Wash.) were housed under conventional conditions for the studies.
Allergen Immunization/Challenge Protocols: Mice received an i.p. injection of 0.2 ml (100 μg) of OVA with alum on the different protocols of Standard (FIG. 5A) and Resolution (FIG. 5B) (J. Exp Med. 1996; 184: 1483-1494). According to the different protocols, mice were anesthetized with 0.2 ml i.p. of ketamine (0.44 mg/ml)/xylazine (6.3 mg/ml) in normal saline before receiving an intranasal (i.n.) does of 100 μg OVA in 0.05 ml normal saline and an i.n. dose of 50 μg OVA in 0.05 ml normal saline separately on different days. Two control groups were used. Accordingly, the first group received normal saline with alum i.p. and normal saline without alum i.n.; the second group received OVA with alum i.p., OVA without alum i.n., and normal saline, alone.
The trachea and left lung (the right lung is used for bronchoalveolar lavage (“BAL”)) were obtained and fixed in 10% neutral formaldehyde solution at room temperature for 6˜15 h. After being embedded in paraffin, the tissues were cut into 5-um sections and processed with the different staining or immunolabling further. Discombe's eosinophil staining was used for counting the cell numbers with the counterstain of methylene blue. The eosinophil number per unit airway area (2,200 μm^2) was determined by morphometry (J. Pathol. 1992; 166: 395-404; Am Rev Respir Dis. 1993; 147:448-456). Fibrosis was identified with the Masson's trichrome staining. Airway mucus was identified by the following staining method: methylene blue, hematoxylin and eosin, mucicarmine, alcian blue, and alcian blue/periodic acid-Schiff (PAS) reaction (Troyer, H., “Carbohydrates” in Principles and Techniques of Histochemistry, Little, Brown and Company, Boston, Mass., 1980: 89-121; Sheehan, D. C., et al., “Carbohydrates” in Theory and Practice of Histotechnology, Battle Press, Columbus, Ohio, 1980: 159-179) Mucin was stained with mucicarmine solution; metanil yellow counterstain was employed. Acidic mucin and sulfated mucosubstances were stained with alcian blue, pH 2.5; nuclear fast red counterstain was used. Neutral and acidic mucosubstances were identified by alcian blue, pH 2.5, and PAS reaction. The degree of mucus plugging of the airways (0.5-0.8 mm in diameter) was also assessed by morphometry. The percent occlusion of airway diameter by mucus was classified on a semiquantitative scale from 0 to 4+ as described in Figure Legends. The histologic and morphometric analyses were performed by individuals blinded to the protocol design. […]

[3] = system: OVA-sensitized/challenged mice; assay: OVA allergen-induced airway inflammation mouse model, 28-day protocol, HK-X i.n. before each challenge; conditions: p<0.004; FIG. 11
Excerpt: The above-described murine model reproduces key features of human asthma. Late-phase allergen-specific pulmonary disease was induced in normal BALB/c mice using ovalbumin (OVA) as allergen. One protocol includes immunization of mice with i.p. OVA on […] and 14, and intranasal (i.n.) administration of OVA on days 14, 25, 26, and 27.
In a mouse model of allergen-induced airway inflammation, the role of mast cell in airway eosinophil infiltration, mucus release, and hyper-responsiveness to methacholine was examined.
Materials were used as described above. Mice received an i.p. injection of 0.2 ml (100 ug) of OVA complexed with aluminum potassium sulfate (alum) on day 0 and 14. On days 14, 25, 26, and 27, mice were anesthetized with 0.2 ml i.p. of ketamine (0.44 mg/ml)/xylazine (6.3 mg/ml) in normal saline before receiving an intranasal (i.n.) dose of 100 ug OVA in 0.05 ml normal saline on days 25, 26, and 27. Lung tissue was obtained 24 hours after the last i.n. challenge on day 28. The control group received normal saline with alum i.p. on days 0 and 14 and normal saline without alum i.n. on days 14, 25, 26, and 27. To assess the effect of HK-X inhibition on OVA induced asthma, HK-X (10 ug/ml) was given i.n. 30 minutes before each i.n challenge on days 25, 26, and 27.
After tying off the left lung at the mainstem bronchus, the right lung was […] three times with 0.4 ml of normal saline, Bronchoalveolar lavage (BAL) fluid cells from a 0.05 ml aliquot of the pooled sample were counted using a hemocytometer and the remaining fluid centrifuged at 4° C. for 10 minutes at 200 g. After resuspension of the cell pellet in normal saline containing 10% BSA, BAL cell smears were made on glass slides. To stain eosinophils, dried slides were stained with Discombe's diluting fluid (0.05% aqueous eosin and 5% (v/v) acetone in distilled water) for 5-8 minutes, rinsed with water for 0.5 minutes and counterstained with 0.07 methylene blue for 2 minutes.
Following BAL, the trachea and left lung (upper and lower lobes) were obtained and fixed in 10% buffered formalin solution at 20° C. for1S hours. After the tissues were processed and embeded in paraffin, the tissues were cut into 5 μm sections and stained with Discombe's solution and counterstained with methylene blue as described above or stained with Hematoxylin and eosin. The eosinophil number per unit airway area (2200 μm^2) was determined by morphometry as previously described. Airway mucus was identified by a variety of staining methods, i.e., methylene blue, Hematoxylin and eosin, mucicarmine, toluidine blue, alcian blue, and alcian blue/periodic acid Schiff (PAS) reaction. Mucin was stained with mucicarmine solution; metanil yellow counterstain was employed. Mucin and sialic acid-rich non-sulfated mucosubstances were stained metachromatically with toluidine blue, pH 4.5. Acidic mucin and sulfated mucosubstances were stained with alcian blue, pH 2.5; nuclear fast red counterstain was used. Neutral and acidic mucosubstances were identified by alcian blue, pH 2.5 and PAS reaction. The degree of mucus plugging of the airways (0.5˜0.8 mm in diameter) also was assessed by morphometry. The percent occlusion of airway diameter by mucus was classified on a semiquantitative scale from 0 to +++++. The histologic and morphometric analyses protocol design were performed by individuals blinded to the protocol design.
Mucus glycoproteins in BAL fluid were assayed by slot blotting and PAS staining as described. Nitrocellulose membranes (0.2 um pore size; Schleicher & Schuell, Keene, N.H.) were wetted in distilled water and then in normal saline before placement in a Minifold II 72-well slot blot apparatus (Schleicher & Schuell). The BAL fluid samples (0.05 ml) and aliquots (0.05-0.75 ml) of a stock solution (2 ug/ml) of human respiratory mucin glycoprotein were blotted onto the nitrocellulose membranes by water suction vacuum, and mucus glycoproteins were visualized by PAS reaction. […]

[4] = system: mast cell degranulation induced by Compound 48/80; assay: Rat skin model: inhibition of Compound 48/80-induced mast cell degranulation (capillary permeability, trypan blue); conditions: 0.15 μg Compound 48/80; for % Degranulation: percent mast cell degranulation produced by 48/80, 100 nanomoles peptide
Procedure: The Rat Skin Model for Determination of Inhibition of Mast Cell Degranulation
In this model, the blood plasma of the experimental rat is labeled with the dye trypan blue. This soluble dye is carried in the bloodstream as a passive marker of plasma itself, and is excluded from live cells. Intact blood vessels, including the capillary system, retain this dye under normal circumstances. A compound, which induces degranulation of mast cells (resulting in leukotriene and histamine release), is injected into the skin to simulate allergen-induced degranulation. In these experiments, Compound 48/80 was used for this purpose. In the events following leukotriene and histamine release, capillary permeability is increased, and plasma, dyed blue, leaks from capillaries and dyes the skin surrounding the injection site blue. The area of bluing is a measure of the amount of Compound 48/80 injected.
A compound can be tested for “anti-leukotriene” and/or “anti-histamine” activity by mixing it with Compound 48/80 prior to injection.
The rat skin model was undertaken and validated. Various peptides were tested at a predetermined dose for anti-leukotriene and/or anti-histamine activity. The dose selected allowed a general comparison to f-Met-Leu-Phe, which was standard compound for comparison.
A “dose response” titration was performed for some compounds and compared with the standard compound. Observing serial decreases in the size areas of capillary permeability using serially smaller doses of the putative inhibitory compound validates the inhibition of leukotriene and/or histamine release observed in the initial predetermined dose test.
Reagents were obtained from Sigma or Aldrich, with the exception of ketamine, a veterinary anaesthetic that was obtained from various veterinary suppliers. The rats used were male Sprague-Dawley breed, 220-240 g at time of purchase from B&K International.
For the rat skin reaction, rats were anaesthetized with 0.25 ml 10 mg/ml ketamine. 1.0 ml trypan blue in saline (sterile filtered) was administered in a tail vein, and the back of the rat was shaved. Four intradermal injection sites per rat were used for test and control injections.
Compound 48/80 was prepared as a 1.5 mg/ml stock solution in saline. […] Serial dilutions in saline to working levels were prepared just prior to injection of each rat.
Peptides were prepared as a 23 mM stock solution in DMSO, and stored at −20° C. between experiments. At the time of use, the frozen stock solutions were thawed, and appropriate aliquots added to dilutions of Compound 48/80, along with appropriate amounts of DMSO, to result in the ratio of 5 μl DMSO to 0.1 ml aqueous Compound 48/80.
For injections, 0.1 ml […], +1/− test compounds were injected intradermally into anaesthetized, dyed, and shaved rats. Following a 15 minute incubation, the rats were sacrificed by cervical dislocation and the back skin was evulsed and placed on a light box. An image of the backlit skin was digitized using a CCD video capture camera and compatible hardware/software. The digitized image was analyzed using a scientific graphics analysis software package, and the areas of capillary permeability (bluing) were integrated and digital values were obtained for further analysis.
A dose response curve was generated using Compound 48/80 at various doses from ca. 0.01 μg through ca. 15 μg. […] A dose of 0.15 μg of Compound 48/80 was selected for conducting further tests.
Several f-Met-Leu peptides were tested for inhibition of induced degranulation in the rat skin model using 100 nanomoles of the test peptide and a dose of 0.15 μg Compound 48/80. An intrinsic zero-peptide-dose 48/80 control was included in each rat for each experiment, and the % of inhibition was expressed in relative terms to this control (0% inhibition). The percent mast cell degranulation produced by 48/80 was also determined.

Question: `CC(c1cc2ccccc2s1)N(O)C(N)=O` (stereo not shown) [Zileuton, N-[1-benzo[b]thien-2-ylethyl]-N-hydroxyurea, reference compound] was tested. Which “decrease in eosinophils recovered in the BAL fluid” value [1] did it give?
Answer: The value was 89%.

Question: And the “AIRWAY INFLUX OF EOSINOPHILS (%)” value ([2]; 1 month)?
Answer: The value was 15.50%.

Question: And the “AIRWAY INFLUX OF EOSINOPHILS (%)” value ([2]; 2 month)?
Answer: The value was 11.66%.

Question: And the “AIRWAY INFLUX OF EOSINOPHILS (%)” value ([2]; 3 month)?
Answer: Its value is 10.73%.

Question: What about the “% of plug of airway” value ([2]; 28 days) of the same compound?
Answer: The value was 16%.

Question: And the “PERCENTAGE OF EOSINOPHILS IN AIRWAY TISSUE” value ([2]; 28 days of treatment)?
Answer: Its value is 15.8%.

Question: And the “MUCUS PLUG SCORE IN AIRWAYS” value ([2]; 28 days, semiquantitative scale 0 to 4+)?
Answer: Its value is 1.3.

Question: What about the “reduction of airway eosinophils” value ([2]; through 1-3 month) of the same compound?
Answer: The value was “could reduced eosinophils generally through 1-3 month”.

Question: What about the “decrease in number of eosinophils in the BAL fluid” value [3] of the same compound?
Answer: The value was 82%.

Question: Which “% Degranulation” value [4] does the source give for N-acetyl-Met-Leu-Phe [Example 3] here?
Answer: Its value is 98%.

Question: What does the source list for “f-Met-Leu-Phe [Example 2, reference compound]”?
Answer: dose response, inhibition of degranulation induced by Compound 48/80 ([4]; doses of 0 to about 230 nM peptide, FIG. 2 / FIG. 3): Inhibition of degranulation induced by Compound 48/80 was clearly shown; % Degranulation [4]: 60%

Question: How did the “% Degranulation” value [4] turn out when f-Met-Leu-Tyr [Example 10] was run?
Answer: Its value is 30%.

Source: US20030013658A1, “Small peptides and methods for treatment of asthma and inflammation” (Hisatek, LLC, priority 1997, published 2003)
